Laboratory results as given in US20240207265A1, “TREATMENT OF CNS DISEASES WITH sGC STIMULATORS” (Tisento Therapeutics Inc., priority 2021, published 2024).

Key:
sGC enzyme = experiment: cGMP GloSensor cell-based assay, 384-well format (HEK293); set-up: species or system human; conditions: HEK293 GloSensor 40F cGMP cells, 10 μM DETA-NONOate, geometrical mean; read-out: Glo EC50
Text: Human embryonic kidney cells (HEK293) cells expressing GloSensor™ 40F cGMP (Part No: CS182801, Promega) were used to evaluate the activity of test compounds. The luminescent biosensors (engineered luciferase) that were incorporated into these cells detect cGMP formed by the compounds stimulating the sGC enzyme and emit luminescence.
cGMP GloSensor cells were maintained in Dulbecco's Modification of Eagle's Medium (DMEM) supplemented with fetal bovine serum (FBS, 10% final) and hygromycine (200 ug/ml). The day before assay, cells were plated in DMEM with 10% FBS in a 50 μL volume at a density of 1.5×10^4 cells/well in a poly-D-lysine coated 384-well flat white-bottom plate (Corning Cat No 35661). Cells were incubated overnight at 37° C. in a humidified chamber with 5% CO2. The next day, medium was removed and cells were replaced with 40 ul/well of GloSensor™, 2 mM (Promega Cat No E1291). Cells were treated for 90 minutes at 25° C. to allow the substrate to equilibrate in the cells. Test compounds and Diethylenetriamine NONOate (DETA-NONOate) was diluted to 3 mM (20×) in serum-free CO2 independent medium and serially diluted at 4× dilutions to create 5× dose curve from which 10 ul was added to the wells (x μM concentration for test compound solution and 10 μM concentration for DETA-NONOate solution; wherein x is one of the following final concentrations: 30 μM, 7.5 μM, 1.9 μM, 469 nM, 117 nM, 29.3 nM, 7.3 nM, 1.83 nM, 0.46 nM, 0.11 nM, 0.03 nM) For the kinetics studies, luminescense was measured right away for 0.2 sec per well with Envision (Perkin Elmer). For endpoint SAR screening, data were collected after 55 min incubation at room temperature.
(§1) Concentration response data were analyzed using a 4-parameter fit (log (agonist) vs. response-variable slope). The EC50 was interpolated from the curve fit and is defined as the concentration at which the compound elicits 50% of its maximal response. When the experiment was carried out multiple times for a given compound, the geometrical mean of all experiments is reported.

human α2β1 sGC isozyme = molecular target: T1, human α2β1 sGC isozyme (Homo sapiens, UniProt P33402+Q02153); experiment: cGMP assay in CHO-K1 cells stably expressing human α2β1 sGC isozyme; format: cell-based; conditions: 10 μM DETA-NONOate
T1 construct: host or cells: CHO-K1
T1 sequence (P33402 1-732): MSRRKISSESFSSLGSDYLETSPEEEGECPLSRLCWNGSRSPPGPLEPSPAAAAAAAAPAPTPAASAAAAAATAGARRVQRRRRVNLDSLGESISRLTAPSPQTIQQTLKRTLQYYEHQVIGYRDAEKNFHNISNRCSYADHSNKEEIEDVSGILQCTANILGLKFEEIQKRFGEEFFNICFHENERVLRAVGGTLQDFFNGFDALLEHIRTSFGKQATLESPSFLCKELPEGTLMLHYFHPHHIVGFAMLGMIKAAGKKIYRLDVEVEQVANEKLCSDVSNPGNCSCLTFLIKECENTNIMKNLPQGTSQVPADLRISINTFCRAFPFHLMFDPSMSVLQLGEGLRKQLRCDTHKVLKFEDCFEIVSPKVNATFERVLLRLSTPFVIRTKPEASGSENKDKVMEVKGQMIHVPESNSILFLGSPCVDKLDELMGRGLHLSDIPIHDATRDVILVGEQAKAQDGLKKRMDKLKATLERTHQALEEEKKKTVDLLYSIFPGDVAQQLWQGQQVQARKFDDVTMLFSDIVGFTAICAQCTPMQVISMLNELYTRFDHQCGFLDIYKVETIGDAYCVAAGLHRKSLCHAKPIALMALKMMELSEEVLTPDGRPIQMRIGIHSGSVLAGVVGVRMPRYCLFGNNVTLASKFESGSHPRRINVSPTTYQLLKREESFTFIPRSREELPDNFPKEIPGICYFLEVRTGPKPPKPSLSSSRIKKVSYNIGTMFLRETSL
T1 sequence (Q02153 1-619): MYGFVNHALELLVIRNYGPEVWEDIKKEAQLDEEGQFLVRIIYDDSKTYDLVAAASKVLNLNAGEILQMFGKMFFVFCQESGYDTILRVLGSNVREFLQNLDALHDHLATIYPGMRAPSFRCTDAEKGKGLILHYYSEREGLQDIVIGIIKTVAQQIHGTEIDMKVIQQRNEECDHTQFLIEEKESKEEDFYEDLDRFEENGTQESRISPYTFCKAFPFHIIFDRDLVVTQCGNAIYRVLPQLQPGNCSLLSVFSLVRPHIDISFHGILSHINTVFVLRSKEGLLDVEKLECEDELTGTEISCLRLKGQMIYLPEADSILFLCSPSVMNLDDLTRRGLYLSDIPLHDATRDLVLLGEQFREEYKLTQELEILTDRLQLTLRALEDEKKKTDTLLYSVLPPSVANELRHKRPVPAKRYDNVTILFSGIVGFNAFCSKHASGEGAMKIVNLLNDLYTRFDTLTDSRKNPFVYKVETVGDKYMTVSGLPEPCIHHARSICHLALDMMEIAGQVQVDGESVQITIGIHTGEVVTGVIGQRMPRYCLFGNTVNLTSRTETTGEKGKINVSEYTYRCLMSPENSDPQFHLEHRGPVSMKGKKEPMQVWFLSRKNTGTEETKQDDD
Procedure: sGC stimulators were dissolved in DMSO as a 10 mM solution and stored at −20° C. To achieve desired test concentrations, stock concentrations were serially diluted into DMSO and then diluted to the appropriate concentration in assay buffer.
CHO-K1 cells stably transfected with human α2β1 sGC isozyme (generated by GenScript for Ironwood) were cultured in F-12K medium (ATCC catalog #30-2004) with 10% fetal calf serum, 4 μg/mL puromycin (Gibco catalog #A11138-03) and 0.4 mg/mL of geneticin (Gibco catalog #10131-027) in a 95% humidified atmosphere containing 5% CO2 in air at 37° C. For GC activity assays, cells were seeded in 384 well poly-D-lysine coated flat bottom plates (Fisher Scientific #08-774-311) in either 50 μL or 70 μL medium at a density of either 3×10^4 cells/well or 15×10^3, respectively. Cells were incubated for 24 hours at 37° C. in a humidified chamber supplemented with 5% CO2.
For each test concentration, the compound was diluted in 100% DMSO to 100-fold of its final assay concentration. Immediately prior to the assay, the solution was diluted 20-fold into HBSS containing calcium, magnesium, and 50 μM DETA-NONOate (5× the final assay concentration). Medium was removed and cells were washed once with 40 μL of HBSS. Cells were then incubated with 40 μL of a solution containing 0.5 mM IBMX in HBSS for 15 min at 37° C. 10 μL from the sGC stimulator/HBSS/DETA-NONOate plate was added to the cells, which were incubated for an additional 20 min at 37° C. Final DMSO concentration was 1%, final DETA-NONOate concentration was 10 μM; and final compound concentrations were 30,000 nM, 6000 nM, 1200 nM, 240 nM, 48 nM, 9.6 nM, 1.92 nM, 0.384 nM, 0.077 nM, 0.015 nM, or 0.003 nM.
Following incubation with compound, assay buffer was removed and 50 μL of ice-cold 10% acetic acid+150 ng/mL internal standard (+3 cGMP) was added to each well. Samples were incubated on ice for 30-60 min. Following centrifugation at 4° C. for 5 min at 1000×g to pellet cell debris, the supernatant was transferred to a clean plate and the samples analyzed for cGMP content.
as §1, with “Data” for “Concentration response data”, “with” for “using”, “(log(agonist)” for “(log (agonist)”, “slope) using GraphPad Prism Software v.8.” for “slope).”

Cc1cc(F)c(Cc2nc(-c3ncc(Cl)c(O)n3)cn3ccnc23)cc1F [Compound I-17, 5-Chloro-2-(8-(2,5-difluoro-4-methylbenzyl)imidazo[1,2-a]pyrazin-6-yl)pyrimidin-4-ol]
EC50 (sGC enzyme): ≤ 100 nM | EC50 (human α2β1 sGC isozyme): ≤ 100 nM
